# “Also recorded” adds a separate entry of the source.
# How the values were obtained:
# [1] = test system: breast cancer cell (BC-M1); experiment: Cytotoxic assay by colorimetric MTT assay (growth inhibition), breast cancer; format: cell-based, human; conditions: for IC50: Homo sapiens, 72 h, BC-M1, 10000 cells per well, 3 days incubation, mean of 4 experiments
# Description: (§1) The in-vitro studies for evaluating these α-alkylatedderivatives of azatyrosine were performed and the general procedures are listed as follow:
# (§2) Human stomach cancer cell line (SC-M1), and human breast cancer cell line (BC-M1) sampled from inpatients at Tri-service General Hospital in Taipei (Taiwan) were cultured and used in the experiments. All cells from primary culture and subculture were grown in 10% RPMI 1640 supplemented with 100 U/mL penicillin G, 100 μg/mL amphotericin B, and 10% fetal calf serum (FCS) in a 5% CO2 incubator at 37° C.
# (§3) The cytotoxicity of these compounds against cultured cancer cells was determined by utilizing in-vitro MTT assay. L-azatyrosine and its α-alkylated derivatives were dissolved in milli-Q water at a concentration of 1 mg/mL and diluted with 10% FCS-RPMI to various concentrations, respectively. Single cell suspension (100 μL) and each compounds (100 μL) were added to 96-well flat-bottom microplate. 10% FCS-RPMI (100 μL) was used as a control group. After 3 days incubation at 37° C. in a 5% CO2 incubator, stock MTT (10 μL of 5 mg/mL for each 100 μL solution in well) solution was added to all wells. After additional 2 h incubation in a 5% CO2 incubator, The mixture was centrifuged (1000 rpm for 5 min) and the supernatant was carefully pipetted out. The residue was mixed well with DMSO (100 μL). The optical density of plates was recorded on a MRX Spectrophotometer (Dynatech, Guernsey, UK) at a wavelength of 550 nm.
# (§4) Fractional inhibition was calculated as [1-(optical density of sample/optical density of control)]. The IC50 values for each compound were determined as a parameter for cytotoxicity, which is the concentration of a test compound exerting 50% survival of cancer cells, compared to untreated controls. Each value is the mean of four experiments. A specific example of the in-vitro study is shown Example 8.
# (§5) A series of α-alkylated derivatives of L-azatyrosine were studied for their in-vitro effects according to the above procedures. The growth inhibition of L-azatyrosine and its derivatives on human cancer cell lines (BC-M1 and SC-M1) has been shown on Table 1.
# [2] = test system: stomach cancer cell (SC-M1); experiment: Cytotoxic assay by colorimetric MTT assay (growth inhibition), stomach cancer; format: cell-based, human; conditions: for IC50: Homo sapiens, 72 h, SC-M1, 10000 cells per well, 3 days incubation, mean of 4 experiments
# Description: as §1, §2, §3, §4, §5
# anticancer activity = conditions: cited from earlier work
# PC-3 = conditions: incubation for 7 days; cited from earlier work
# TSU-Prl = conditions: incubation for 7 days; cited from earlier work
# [3] = test system: 7,12-dimethylbenz[a]anthracene or methylnitrosourea-induced carcinogenesis in mice; conditions: mice harboring a normal c-Ha-ras gene; cited from earlier work
# [4] = test system: prostate tumorigenic growth; conditions: cited from earlier work
# [5] = test system: pappilomas induced by a chemical carcinogen; conditions: 2 mg/mouse once every two days for 12 days; cited from earlier work
# [6] = test system: cells possessing normal ras gene; conditions: cited from earlier work
# [7] = test system: activated c-Ha-ras-transformed NIH3T3 cells; conditions: cited from earlier work
# [8] = test system: human prostate cancer cells; conditions: cited from earlier work
# DU-145 = conditions: incubation for 7 days; cited from earlier work
smiles,measurement,setting,value
"CC(C)CC(Cc1ccc(O)cn1)(NC(=O)c1ccccc1)C(=O)N[C@@H](C)c1ccccc1 (mixture of isomers) [Compound 10b, N-Benzoyl-α-isobutyl-DL-azatyrosyl-(S)-1-phenylethylamide]","cytotoxicity / growth inhibition compared with L-azatyrosine (in words), BC-M1",[1],higher growth inhibition than that of L-azatyrosine
same,IC50,[1],300 µM
same,IC50,[2],300 µM
same,"cytotoxicity / growth inhibition compared with L-azatyrosine (in words), SC-M1",[2],higher growth inhibition than that of L-azatyrosine
"C[C@H](NC(=O)C(Cc1ccccc1)(Cc1ccc(O)cn1)NC(=O)c1ccccc1)c1ccccc1 (mixture of isomers) [Compound 10c, N-Benzoyl-α-benzyl-DL-azatyrosyl-(S)-1-phenylethylamide]","cytotoxicity / growth inhibition compared with L-azatyrosine (in words), BC-M1",[1],higher growth inhibition than that of L-azatyrosine
same,IC50,[1],600 µM
same,IC50,[2],80 µM
same,"cytotoxicity / growth inhibition compared with L-azatyrosine (in words), SC-M1",[2],higher growth inhibition than that of L-azatyrosine; also recorded: excellent cytotoxicity on SC-M1 compared with L-azatyrosine
"CC(Cc1ccc(O)cn1)(NC(=O)c1ccccc1)C(=O)O (racemic) [Compound 8a, N-Benzoyl-α-methyl-DL-azatyrosine]",IC50,[1],1300 µM
same,IC50,[2],800 µM
"CC(C)CC(Cc1ccc(O)cn1)(NC(=O)c1ccccc1)C(=O)O (racemic) [Compound 8b, N-Benzoyl-α-isobutyl-DL-azatyrosine]",IC50,[1],1000 µM
same,IC50,[2],1200 µM
"O=C(NC(Cc1ccccc1)(Cc1ccc(O)cn1)C(=O)O)c1ccccc1 (racemic) [Compound 8c, N-benzoyl-α-benzyl-DL-azatyrosine]",IC50,[1],600 µM
same,IC50,[2],600 µM
"CCOC(=O)C(Cc1ccc(O)cn1)(CC(C)C)NC(=O)c1ccccc1 (racemic) [Compound 9b, Ethyl N-benzoyl-α-isobutyl-DL-azatyrosinate]",IC50,[1],700 µM
same,IC50,[2],600 µM
"CCOC(=O)C(Cc1ccccc1)(Cc1ccc(O)cn1)NC(=O)c1ccccc1 (racemic) [Compound 9c, Ethyl N-benzoyl-α-benzyl-DL-azatyrosinate]",IC50,[1],900 µM
same,IC50,[2],1000 µM
"N[C@@H](Cc1ccc(O)cn1)C(=O)O [L-Azatyrosine, L-azatyrosine]",concentrations required for the anticancer activity,anticancer activity,1 to 2 mM
same,IC50,[1],2200 µM
same,"in-vitro growth inhibition, PC-3",PC-3,greater than 95%
same,"in-vitro growth inhibition, TSU-Prl",TSU-Prl,greater than 95%
same,"inhibition of 7,12-dimethylbenz[a]anthracene or methylnitrosourea-induced carcinogenesis",[3],inhibits
same,inhibition of prostate tumorigenic growth,[4],inhibit prostate tumorigenic growth
same,block of pappilomas induced by a chemical carcinogen,[5],can block pappilomas
same,effect on the growth of cells possessing normal ras gene,[6],without significantly affecting the growth
same,reversion of activated c-Ha-ras-transformed NIH3T3 cells to the apparently normal phenotype,[7],induces permanent reversion
same,reversion efficiency on human prostate cancer cells,[8],high reversion efficiency
same,IC50,[2],1600 µM
same,"in-vitro growth inhibition, DU-145",DU-145,greater than 95%

# Reference: US6037357A, “N-benzoyl-α-alkylated azatyrosines as anticancer agents” (Unitech Pharmaceuticals, Inc., priority 1999, dated 2000)
